Experimental data reported in US10406207B2, “Peptide conjugates of GLP-1 receptor agonists and gastrin and their use” (priority 2010, dated 2019).
Where two headings read alike, the source gives them in different places. Numbered stars: 1 amine (or outer) side, 2 acyl side, 3 side chain; on linkers, the order of the positions; unused ones are H or OH. Square brackets hold non-standard residues; d marks the D form. Side chains are listed from the residue outwards. Peptide text beside a SMILES is read from it. * marks the point of attachment. γGlu = O=C(O)[C@H](CCC(=O)[*:2])N[*:1]; Palmitoyl = CCCCCCCCCCCCCCCC(=O)*; Orn = NCCC[C@H](N)C(=O)O; AEEA = NCCOCCOCC(=O)O

Tests used:
[1] = biological target: T1, human GLP-1 R (Homo sapiens, UniProt P43220); experiment: Human GLP-1 receptor efficacy assay (cAMP induction, FlashPlate); format: cell-based; conditions: read-out: hGLP-1 R EC50
T1 construct: expressed in transfected cells
T1 sequence (P43220 24-463): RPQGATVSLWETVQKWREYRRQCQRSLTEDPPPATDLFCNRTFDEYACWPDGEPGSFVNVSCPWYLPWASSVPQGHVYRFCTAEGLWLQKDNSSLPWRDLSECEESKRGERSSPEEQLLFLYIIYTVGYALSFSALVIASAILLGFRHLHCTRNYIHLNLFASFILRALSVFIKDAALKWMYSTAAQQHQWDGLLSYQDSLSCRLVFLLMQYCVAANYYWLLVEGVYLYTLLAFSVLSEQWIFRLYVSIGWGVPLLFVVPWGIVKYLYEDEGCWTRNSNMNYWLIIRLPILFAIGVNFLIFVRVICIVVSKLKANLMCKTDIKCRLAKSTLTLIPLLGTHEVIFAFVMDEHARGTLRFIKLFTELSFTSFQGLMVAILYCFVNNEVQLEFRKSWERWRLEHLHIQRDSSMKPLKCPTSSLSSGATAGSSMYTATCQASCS
Method: On the day of analysis, growth medium was removed and the cells were washed once with 200 μl Tyrode buffer [Tyrode's Salts (9.6 g/l), 10 mM HEPES, pH 7.4]. […] The reaction was stopped by addition of 25 μl 0.5 M HCl and incubated on ice for 60 min.

[2] = biological target: T2, human CCK-B R (Homo sapiens, UniProt P32239); experiment: Human CCK-B receptor efficacy assay (AlphaScreen SureFire p-ERK); format: cell-based; conditions: read-out: hCCK-B R EC50
T2 construct: expressed in transfected cells
T2 sequence (P32239 1-447): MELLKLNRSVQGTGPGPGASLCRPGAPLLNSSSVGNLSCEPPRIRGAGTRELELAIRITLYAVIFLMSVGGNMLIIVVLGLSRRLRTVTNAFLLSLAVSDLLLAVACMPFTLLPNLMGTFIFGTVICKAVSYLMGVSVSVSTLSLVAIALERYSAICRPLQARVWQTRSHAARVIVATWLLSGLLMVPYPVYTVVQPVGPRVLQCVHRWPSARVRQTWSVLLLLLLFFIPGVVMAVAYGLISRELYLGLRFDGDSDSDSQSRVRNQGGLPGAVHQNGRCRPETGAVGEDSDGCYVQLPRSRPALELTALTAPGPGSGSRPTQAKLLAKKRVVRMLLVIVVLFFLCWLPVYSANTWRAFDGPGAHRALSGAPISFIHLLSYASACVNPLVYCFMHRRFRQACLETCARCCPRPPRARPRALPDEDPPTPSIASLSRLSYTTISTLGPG
Method: CCK-B Receptor (CCK-B R) Efficacy Assay:
In vitro effects of peptide conjugates of the invention were estimated by measuring p-ERK (using the AlphaScreen™ SureFire p-ERK assay) in HEK293 cells stably expressing the human and mouse CCK-B R (high-affinity Gastrin receptor), respectively. The Gastrin receptor efficacy assays (AlphaScreen™ SureFire p-ERK assay) were performed as follows:
The CCK-B R expressing cells in question were seeded at 20,000 cells/well in 100 μl growth medium [DMEM, 10% FCS, Penicillin (100 IU/ml), Streptomycin (100 μg/ml)] in a 96-well plate coated with poly-D-lysine. The cells were incubated in an incubator (37° C., 5% 002) for two days.
The growth medium was changed to 80 μl of serum-free medium [DMEM, Penicillin (100 IU/ml), Streptomycin (100 μg/ml)] per well, and incubation of the cells was continued for 19 hours in the incubator (37° C., 5% CO2).
After 19 hours, 20 μl of serum-free medium containing one of 5 different concentrations of peptide conjugate was added (performed in triplicate for each concentration), and the cells were incubated for 5 min. at room temperature. • 2. The stimulation medium was discarded by quickly turning the plate upside down, and 60 μl 1× lysis buffer (from the SureFire assay kit) was added per well. • 3. The plate was shaken on a plate-shaker for 5 min and then placed on ice. • 4. SureFire P-ERK assay: 4 μl of each supernatant was transferred to a 384 well proxiplate (Perkin Elmer). • 5. 4 μl of each of the two control lysates (unstimulated and stimulated) were added to the proxiplate in duplicate. • 6. […] 7 μl of the latter reaction buffer+activation buffer+beads per well were added in the proxiplate, the mix being resuspended carefully before addition to the wells. • 7. The plate was incubated for 2 hours in a dark box in a 22° C. incubator. • 8. The plate was analyzed on an Envision™ light-emission plate reader (Perkin-Elmer) using the appropriate reading program (Perkin-Elmer).

An EC50 ([1]; Table 3) of 0.043 nM and an EC50 ([2]; Table 3) of 42 nM were found for `CC[C@H](C)[C@H](NC(=O)[C@H](Cc1ccccc1)NC(=O)[C@H](CCC(=O)O)NC(=O)[C@H](CCCCN)NC(=O)[C@H](C)NC(=O)[C@H](C)NC(=O)[C@H](CCC(N)=O)NC(=O)CNC(=O)[C@H](CCC(=O)O)NC(=O)[C@H](CC(C)C)NC(=O)[C@H](Cc1ccc(O)cc1)NC(=O)[C@H](CO)NC(=O)[C@H](CO)NC(=O)[C@@H](NC(=O)[C@H](CC(=O)O)NC(=O)[C@H](CO)NC(=O)[C@@H](NC(=O)[C@H](Cc1ccccc1)NC(=O)[C@@H](NC(=O)CNC(=O)[C@H](CCC(=O)O)NC(=O)C(C)(C)NC(=O)[C@@H](N)Cc1c[nH]cn1)[C@@H](C)O)[C@@H](C)O)C(C)C)C(=O)N[C@@H](C)C(=O)N[C@@H](Cc1c[nH]c2ccccc12)C(=O)N[C@@H](CC(C)C)C(=O)N[C@H](C(=O)N[C@@H](CCCNC(=N)N)C(=O)NCC(=O)N[C@@H](CCCNC(=N)N)C(=O)NCC(=O)NCCOCCOCC(=O)NCCOCCOCC(=O)N[C@@H](Cc1ccc(O)cc1)C(=O)NCC(=O)N[C@@H](Cc1c[nH]c2ccccc12)C(=O)N[C@@H](CC(C)C)C(=O)N[C@@H](CC(=O)O)C(=O)N[C@@H](Cc1ccccc1)C(N)=O)C(C)C` [Compound 112, [Aib8,Arg34]GLP-1(7-37)-Peg3-Peg3-[Leu4]Gastrin6] in this work.
An EC50 ([1]; Table 2) of 0.038 nM and an EC50 ([2]; Table 2) of 15 nM were found for `CC[C@H](C)[C@H](NC(=O)[C@H](Cc1ccccc1)NC(=O)[C@H](CC(C)C)NC(=O)[C@H](CCCN)NC(=O)[C@@H](NC(=O)[C@H](C)NC(=O)[C@H](CCC(=O)O)NC(=O)[C@H](CCC(=O)O)NC(=O)[C@H](CCC(=O)O)NC(=O)[C@H](CCSC)NC(=O)[C@H](CCC(N)=O)NC(=O)[C@H](CCCCN)NC(=O)[C@H](CO)NC(=O)[C@H](CC(C)C)NC(=O)[C@H](CC(=O)O)NC(=O)[C@H](CO)NC(=O)[C@@H](NC(=O)[C@H](Cc1ccccc1)NC(=O)[C@@H](NC(=O)CNC(=O)[C@H](CCC(=O)O)NC(=O)CNC(=O)[C@@H](N)Cc1c[nH]cn1)[C@@H](C)O)[C@@H](C)O)C(C)C)C(=O)N[C@@H](CCC(=O)O)C(=O)N[C@@H](Cc1c[nH]c2ccccc12)C(=O)N[C@@H](CC(C)C)C(=O)N[C@@H](CCCCN)C(=O)N[C@@H](CC(N)=O)C(=O)NCCOCCOCC(=O)NCCOCCOCC(=O)N[C@@H](Cc1ccc(O)cc1)C(=O)NCC(=O)N[C@@H](Cc1c[nH]c2ccccc12)C(=O)N[C@@H](CC(C)C)C(=O)N[C@@H](CC(=O)O)C(=O)N[C@@H](Cc1ccccc1)C(N)=O` [Compound 66, [Orn20]Exendin-4(1-28)-Peg3-Peg3-[Leu4]Gastrin6] (H-HGEGTFTSDLSKQMEEEAV[Orn]LFIEWLKN[AEEA][AEEA]YGWLDF-NH2) in this work.
An EC50 ([1]; Table 2) of 0.091 nM and an EC50 ([2]; Table 2) of 54 nM were found for `CC[C@H](C)[C@H](NC(=O)[C@H](Cc1ccccc1)NC(=O)[C@H](CC(C)C)NC(=O)[C@H](CCCNC(=N)N)NC(=O)[C@@H](NC(=O)[C@H](C)NC(=O)[C@H](CCC(=O)O)NC(=O)[C@H](CCC(=O)O)NC(=O)[C@H](CCC(=O)O)NC(=O)[C@H](CC(C)C)NC(=O)[C@H](Cc1ccc(O)cc1)NC(=O)[C@H](CCCCN)NC(=O)[C@H](CO)NC(=O)[C@H](CC(C)C)NC(=O)[C@H](CCC(=O)O)NC(=O)[C@H](CO)NC(=O)[C@@H](NC(=O)[C@H](Cc1ccccc1)NC(=O)[C@@H](NC(=O)CNC(=O)[C@H](CCC(=O)O)NC(=O)CNC(=O)[C@@H](N)Cc1c[nH]cn1)[C@@H](C)O)[C@@H](C)O)C(C)C)C(=O)N[C@@H](CCC(=O)O)C(=O)N[C@@H](Cc1ccccc1)C(=O)N[C@@H](CC(C)C)C(=O)N[C@@H](CCCCN)C(=O)NCCOCCOCC(=O)N[C@@H](Cc1ccc(O)cc1)C(=O)NCC(=O)N[C@@H](Cc1c[nH]c2ccccc12)C(=O)N[C@@H](CC(C)C)C(=O)N[C@@H](CC(=O)O)C(=O)N[C@@H](Cc1ccccc1)C(N)=O` [Compound 102, [Glu9,Leu14,Phe25,Tyr13]Exendin-4(1-27)-Peg3-[Leu4]Gastrin6] in this work.
An EC50 ([1]; Table 2) of 0.12 nM and an EC50 ([2]; Table 2) of 100 nM were found for `CC[C@H](C)[C@H](NC(=O)[C@H](Cc1ccccc1)NC(=O)[C@H](CC(C)C)NC(=O)[C@H](CCCNC(=N)N)NC(=O)[C@@H](NC(=O)[C@H](C)NC(=O)[C@H](CCC(=O)O)NC(=O)[C@H](CCC(=O)O)NC(=O)[C@H](CCC(=O)O)NC(=O)[C@H](CC(C)C)NC(=O)[C@H](Cc1ccc(O)cc1)NC(=O)[C@H](CCCCN)NC(=O)[C@H](CO)NC(=O)[C@H](CC(C)C)NC(=O)[C@H](CCC(=O)O)NC(=O)[C@H](CO)NC(=O)[C@@H](NC(=O)[C@H](Cc1ccccc1)NC(=O)[C@@H](NC(=O)CNC(=O)[C@H](CCC(=O)O)NC(=O)CNC(=O)[C@@H](N)Cc1c[nH]cn1)[C@@H](C)O)[C@@H](C)O)C(C)C)C(=O)N[C@@H](CCC(=O)O)C(=O)N[C@@H](Cc1ccccc1)C(=O)N[C@@H](CC(C)C)C(=O)N[C@@H](CCCCN)C(=O)N[C@@H](CCCN)C(=O)NCCOCCOCC(=O)N[C@@H](Cc1ccc(O)cc1)C(=O)NCC(=O)N[C@@H](Cc1c[nH]c2ccccc12)C(=O)N[C@@H](CC(C)C)C(=O)N[C@@H](CC(=O)O)C(=O)N[C@@H](Cc1ccccc1)C(N)=O` [Compound 103, [Glu9,Leu14,Phe25,Tyr13]Exendin-4(1-27)-Orn-Peg3-[Leu4]Gastrin6] (H-HGEGTFTSELSKYLEEEAVRLFIEFLK[Orn][AEEA]YGWLDF-NH2) in this work.
An EC50 ([1]; Table 3) of 0.11 nM and an EC50 ([2]; Table 3) of 78 nM were found for `CCCCCCCCCCCCCCCC(=O)N[C@@H](CCC(=O)NCCCC[C@H](NC(=O)CNC(=O)[C@H](CCCNC(=N)N)NC(=O)[C@@H](NC(=O)[C@H](CC(C)C)NC(=O)[C@H](Cc1c[nH]c2ccccc12)NC(=O)[C@H](C)NC(=O)[C@@H](NC(=O)[C@H](Cc1ccccc1)NC(=O)[C@H](CCC(=O)O)NC(=O)[C@H](CCCNC(=N)N)NC(=O)[C@H](C)NC(=O)[C@H](C)NC(=O)[C@H](CCC(N)=O)NC(=O)CNC(=O)[C@H](CCC(=O)O)NC(=O)[C@H](CC(C)C)NC(=O)[C@H](Cc1ccc(O)cc1)NC(=O)[C@H](CO)NC(=O)[C@H](CO)NC(=O)[C@@H](NC(=O)[C@H](CC(=O)O)NC(=O)[C@H](CO)NC(=O)[C@@H](NC(=O)[C@H](Cc1ccccc1)NC(=O)[C@@H](NC(=O)CNC(=O)[C@H](CCC(=O)O)NC(=O)[C@H](C)NC(=O)[C@@H](N)Cc1c[nH]cn1)[C@@H](C)O)[C@@H](C)O)C(C)C)[C@@H](C)CC)C(C)C)C(=O)NCC(=O)NCCOCCOCC(=O)NCCOCCOCC(=O)N[C@@H](Cc1ccc(O)cc1)C(=O)NCC(=O)N[C@@H](Cc1c[nH]c2ccccc12)C(=O)N[C@@H](CC(C)C)C(=O)N[C@@H](CC(=O)O)C(=O)N[C@@H](Cc1ccccc1)C(N)=O)C(=O)O` [Compound 108, [Arg26,34,Lys(Hexadecanoyl-isoGlu)36]GLP-1(7-37)-Peg3-Peg3-[Leu4]Gastrin6] (H-HAEGTFTSDVSSYLEGQAAREFIAWLVRGK([γGlu-Palmitoyl])G[AEEA][AEEA]YGWLDF-NH2) in this work.
An EC50 ([1]; Table 3) of 0.088 nM and an EC50 ([2]; Table 3) of 59 nM were found for `CCCCCCCCCCCCCCCC(=O)N[C@@H](CCC(=O)NCCCC[C@H](NC(=O)[C@H](C)NC(=O)[C@H](C)NC(=O)[C@H](CCC(N)=O)NC(=O)CNC(=O)[C@H](CCC(=O)O)NC(=O)[C@H](CC(C)C)NC(=O)[C@H](Cc1ccc(O)cc1)NC(=O)[C@H](CO)NC(=O)[C@H](CO)NC(=O)[C@@H](NC(=O)[C@H](CC(=O)O)NC(=O)[C@H](CO)NC(=O)[C@@H](NC(=O)[C@H](Cc1ccccc1)NC(=O)[C@@H](NC(=O)CNC(=O)[C@H](CCC(=O)O)NC(=O)C(C)(C)NC(=O)[C@@H](N)Cc1c[nH]cn1)[C@@H](C)O)[C@@H](C)O)C(C)C)C(=O)N[C@@H](CCC(=O)O)C(=O)N[C@@H](Cc1ccccc1)C(=O)N[C@H](C(=O)N[C@@H](C)C(=O)N[C@@H](Cc1c[nH]c2ccccc12)C(=O)N[C@@H](CC(C)C)C(=O)N[C@H](C(=O)N[C@@H](CCCNC(=N)N)C(=O)NCC(=O)N[C@@H](CCCNC(=N)N)C(=O)NCC(=O)NCCOCCOCC(=O)NCCOCCOCC(=O)N[C@@H](Cc1ccc(O)cc1)C(=O)NCC(=O)N[C@@H](Cc1c[nH]c2ccccc12)C(=O)N[C@@H](CC(C)C)C(=O)N[C@@H](CC(=O)O)C(=O)N[C@@H](Cc1ccccc1)C(N)=O)C(C)C)[C@@H](C)CC)C(=O)O` [Compound 111, [Aib8,Arg34,Lys(Hexadecanoyl-isoGlu)26]GLP-1(7-37)-Peg3-Peg3-[Leu4]Gastrin6] in this work.
An EC50 ([1]; Table 2) of 0.041 nM and an EC50 ([2]; Table 2) of 51 nM were found for `CC[C@H](C)[C@H](NC(=O)[C@H](Cc1ccccc1)NC(=O)[C@H](CC(C)C)NC(=O)[C@H](CCCNC(=N)N)NC(=O)[C@@H](NC(=O)[C@H](C)NC(=O)[C@H](CCC(=O)O)NC(=O)[C@H](CCC(=O)O)NC(=O)[C@H](CCC(=O)O)NC(=O)[C@H](CC(C)C)NC(=O)[C@H](Cc1ccc(O)cc1)NC(=O)[C@H](CCCCN)NC(=O)[C@H](CO)NC(=O)[C@H](CC(C)C)NC(=O)[C@H](CCC(=O)O)NC(=O)[C@H](CO)NC(=O)[C@@H](NC(=O)[C@H](Cc1ccccc1)NC(=O)[C@@H](NC(=O)CNC(=O)[C@H](CCC(=O)O)NC(=O)CNC(=O)[C@@H](N)Cc1c[nH]cn1)[C@@H](C)O)[C@@H](C)O)C(C)C)C(=O)N[C@@H](CCC(=O)O)C(=O)N[C@@H](Cc1ccccc1)C(=O)N[C@@H](CC(C)C)C(=O)N[C@@H](CCCCN)C(=O)NCCOCCOCC(=O)N[C@@H](CCCN)C(=O)N[C@@H](Cc1c[nH]c2ccccc12)C(=O)N[C@@H](CC(C)C)C(=O)N[C@@H](CC(=O)O)C(=O)N[C@@H](Cc1ccccc1)C(N)=O` [Compound 99, [Glu9,Leu14,Phe25,Tyr13]Exendin-4(1-27)-Peg3-Orn-[Leu2]Gastrin4] (H-HGEGTFTSELSKYLEEEAVRLFIEFLK[AEEA][Orn]WLDF-NH2) in this work.
